Assay results from patent US9012439B2, “Use of electrophilic compounds for inducing platelet production or maintaining platelet function” (University of Rochester, priority 2007, dated 2015).

How the values were obtained:
[1] = test system: primary human megakaryocytes; assay: Reactive oxygen species production in primary human megakaryocytes; format: cell-based; conditions: pretreatment before 15d-PGJ2
Description: Human CD34+ cord blood cells were obtained from the National Disease Research Interchange (NDRI, Philadelphia, Pa.). Cells were plated at 2.5×10^5 cells per well in a 12-well plate and cultured in serum-free medium as previously described (Zeuner et al., “Chemotherapy-induced Thrombocytopenia Derives from the Selective Death of Megakaryocyte Progenitors and Can Be Rescued by Stem Cell Factor,” Cancer Res 67:4767-4773 (2007), which is hereby incorporated by reference in its entirety) and supplemented with 100 ng/mL of rhTPO. After 14 days in culture, megakaryocytes were identified by staining with a CD61-FITC antibody and analyzed on a BD Biosciences FACSCalibur flow cytometer. Data were analyzed using FlowJo software (Treestar, Ashland, Oreg.). Cell images were captured using an inverted microscope (Olympus IX81). Ten μM carboxy-H2DCFDA was added to cells for 20 min at RT. The cells were washed and immediately analyzed by flow cytometry. Five μM of MitoSOX Red dye in HBSS containing Mg^2+ and Ca^2+ was added to the cells for 15 min at 37° C. The cells were washed in HBSS and analyzed by flow cytometry.

[2] = test system: primary human megakaryocytes; assay: Platelet production from human cord blood CD34+-derived megakaryocytes; format: cell-based; conditions: primary human megakaryocytes; 5 mM GSH-EE or 1 mM NAC for 2 h, then 15d-PGJ2 24 h
Description: Human CD34+ cord blood cells were obtained from the National Disease Research Interchange (NDRI, Philadelphia, Pa.). Cells were plated at 2.5×10^5 cells per well in a 12-well plate and cultured in serum-free medium as previously described (Zeuner et al., “Chemotherapy-induced Thrombocytopenia Derives from the Selective Death of Megakaryocyte Progenitors and Can Be Rescued by Stem Cell Factor,” Cancer Res 67:4767-4773 (2007), which is hereby incorporated by reference in its entirety) and supplemented with 100 ng/mL of rhTPO. After 14 days in culture, megakaryocytes were identified by staining with a CD61-FITC antibody and analyzed on a BD Biosciences FACSCalibur flow cytometer. Data were analyzed using FlowJo software (Treestar, Ashland, Oreg.). Cell images were captured using an inverted microscope (Olympus IX81). Platelets were isolated from megakaryocytes by centrifugation at 150 xg for 10 min. Supernatants underwent sequential centrifugation (500 xg for 10 min and 1000×g for 10 min). The remaining platelet pellet was fixed then permeabilized with a CD61 or CD41 antibody. 7-AAD (BD Pharmingen) was added for 10 min before analyzing the cells by flow cytometry. Platelets were identified using three well-described parameters (Patel et al., “The Biogenesis of Platelets from Megakaryocyte Proplatelets,” J Clin Invest 115:3348-3354 (2005); Breton-Gorius et al., “Expression of Platelet Proteins During the In Vitro and In Vivo Differentiation of Megakaryocytes and Morphological Aspects of Their Maturation,” Semin Hematol 23:43-67 (1986); Ogura et al., “Establishment of a Novel Human Megakaryoblastic Leukemia Cell Line, MEG-01, With Positive Philadelphia Chromosome,” Blood 66:1384-1392 (1985) and Franks et al., “A Fluorescence Microscopy Method for Quantifying Levels of Prostaglandin Endoperoxide H Synthase-1 and CD-41 in MEG-01 Cells,” Biol Proced Online 3:54-63 (2001), each of which is hereby incorporated by reference in its entirety), size (using normal human platelets as a control), presence of CD61 or CD41 and lack of DNA as determined by the absence of 7-AAD staining Ten thousand platelet events were collected and platelets were quantified by rate (platelet events/second) (Chung et al., “Platelet Activation in Acute, Decompensated Congestive Heart Failure,” Thromb Res 120:709-713 (2007), which is hereby incorporated by reference in its entirety.

Meg-01 cells [3] = assay: Platelet production from Meg-01 cells (flow cytometry); format: cell-based, human; conditions: for effect of antioxidant pretreatment on 15d-PGJ2-induced platelet production / platelet production: Meg-01 cells; for effect of antioxidant pretreatment on 15d-PGJ2-induced platelet production: 5 mM GSH-EE or 1 mM NAC for 2 h, then 15d-PGJ2 24 h; for platelet production: 10 μM, 24 h
Description: Meg-01 and M07e cells were purchased from the American Type Culture Collection (Rockville, Md.) and Dami cells were a generous gift from Dr. Patricia J. Simpson-Haidaris (University of Rochester). All cells were cultured in RPMI-1640 tissue culture medium (Invitrogen) supplemented with 5% fetal bovine serum (FBS; Invitrogen), 10 mM HEPES (N-2-hydroxyethylpiperazine-N′-2-ethanesulfonic acid; Sigma), 2 mM L-glutamine (Invitrogen), 4.5 g/L glucose (Invitrogen), and 50 μg/mL gentamicin (Invitrogen). M07e cells were also supplemented with 100 ng/mL of granulocyte monocyte-colony stimulating factor (GM-CSF, R&D Systems). All treatments were performed in normal growth media. Dimethyl sulfoxide (DMSO) was used as a vehicle (control) in the experiments described below.
Platelets were isolated from megakaryocytes by centrifugation at 150 xg for 10 min. Supernatants underwent sequential centrifugation (500 xg for 10 min and 1000×g for 10 min). The remaining platelet pellet was fixed then permeabilized with a CD61 or CD41 antibody. 7-AAD (BD Pharmingen) was added for 10 min before analyzing the cells by flow cytometry. Platelets were identified using three well-described parameters (Patel et al., “The Biogenesis of Platelets from Megakaryocyte Proplatelets,” J Clin Invest 115:3348-3354 (2005); Breton-Gorius et al., “Expression of Platelet Proteins During the In Vitro and In Vivo Differentiation of Megakaryocytes and Morphological Aspects of Their Maturation,” Semin Hematol 23:43-67 (1986); Ogura et al., “Establishment of a Novel Human Megakaryoblastic Leukemia Cell Line, MEG-01, With Positive Philadelphia Chromosome,” Blood 66:1384-1392 (1985) and Franks et al., “A Fluorescence Microscopy Method for Quantifying Levels of Prostaglandin Endoperoxide H Synthase-1 and CD-41 in MEG-01 Cells,” Biol Proced Online 3:54-63 (2001), each of which is hereby incorporated by reference in its entirety), size (using normal human platelets as a control), presence of CD61 or CD41 and lack of DNA as determined by the absence of 7-AAD staining Ten thousand platelet events were collected and platelets were quantified by rate (platelet events/second) (Chung et al., “Platelet Activation in Acute, Decompensated Congestive Heart Failure,” Thromb Res 120:709-713 (2007), which is hereby incorporated by reference in its entirety.
A 19 by target sequence was selected to knock down PPARγ. PPARγ was cloned downstream of the RNA polymerase III U6 promoter and subcloned into a FG12 lentiviral vector which expresses green fluorescent protein (GFP) under the Ubiquitin C promoter. HEK 293 cells expressing this siRNA PPARγ had reduced PPARγ protein levels. To make the lentivirus, HEK 293 cells were co-transfected with 3 plasmids: the envelope vector (CMV-VSVG), the transfer vector (FG12-shRNAPPAR), and the packaging construct (pCMVΔ89.2 (gag/pol proteins)). Viral supernatants were collected every 8 h for 2 days and concentrated by ultracentrifugation at 50,000×g for 2 h at 4° C. using a Beckman SW 28 rotor. Viral titers were determined by infection of HeLa cells with serial dilutions of the viral stocks. Meg-01 cells were infected at a multiplicity of infection (MOI) of 20. After 48 h, approximately 56% of the PPARγ siRNA cells were transduced as determined by flow cytometry. The GFP positive (+) cells were then sorted by FACS and grown in RPMI with 5% FBS.

Meg-01 cells [4] = assay: Reactive oxygen species production in Meg-01 cells (carboxy-H2DCFDA, MitoSOX Red); format: cell-based, human; conditions: for effect of antioxidant pretreatment on 15d-PGJ2 ROS induction: Meg-01 cells, pretreatment before 15d-PGJ2; for percentage of Meg-01 cells that produce mitochondrial superoxide (MitoSOX Red): 10 μM
Description: Ten μM carboxy-H2DCFDA was added to cells for 20 min at RT. The cells were washed and immediately analyzed by flow cytometry. Five μM of MitoSOX Red dye in HBSS containing Mg^2+ and Ca^2+ was added to the cells for 15 min at 37° C. The cells were washed in HBSS and analyzed by flow cytometry.

For CCOC(=O)CNC(=O)[C@H](CS)NC(=O)CC[C@H](N)C(=O)O [GSH-EE, glutathione reduced ethyl ester, reference compound], the “effect of antioxidant pretreatment on 15d-PGJ2 ROS induction” value (“effect … on 15d-PGJ2 ROS induction” below) [1] was “attenuated both ROS induction and platelet formation”, the “effect of antioxidant pretreatment on 15d-PGJ2-induced platelet production” value (shortened to “effect … on 15d-PGJ2-induced platelet production”) [2] was “attenuate 15d-PGJ2-induced platelet production” and the “effect … on 15d-PGJ2-induced platelet production” value (Meg-01 cells [3]) was “attenuate 15d-PGJ2-induced platelet production”. The “effect … on 15d-PGJ2 ROS induction” value (Meg-01 cells [4]) was “attenuated both ROS induction and platelet formation”.

In the case of O=C(Nc1ccccc1)c1cc([N+](=O)[O-])ccc1Cl [GW9662], the “blocking of 15d-PGJ2-enhanced platelet production” value (Meg-01 cells [3]; Meg-01 cells pre-treated 2 h with 100 nM GW9662, then 15d-PGJ2 24 h) was “not blocked”.

With CC(=O)N[C@@H](CS)C(=O)O [NAC, N-acetylcysteine, reference compound] the “effect … on 15d-PGJ2 ROS induction” value [1] was “attenuated both ROS induction and platelet formation”, the “effect … on 15d-PGJ2-induced platelet production” value [2] was “attenuate 15d-PGJ2-induced platelet production” and the “effect … on 15d-PGJ2-induced platelet production” value (Meg-01 cells [3]) was “attenuate 15d-PGJ2-induced platelet production”. For the same compound, the “effect … on 15d-PGJ2 ROS induction” value (Meg-01 cells [4]) was “attenuated both ROS induction and platelet formation”.

In the case of CCCCC[C@H](O)/C=C/[C@H]1[C@H](O)CC(=O)[C@@H]1C/C=C\CCCC(=O)O [PGE2], the platelet production (Meg-01 cells [3]) was “failed to enhance platelet production”.

With CCCCC[C@H](O)/C=C/[C@@H]1[C@@H](C/C=C\CCCC(=O)O)[C@@H](O)C[C@H]1O [PGF2α] the platelet production (Meg-01 cells [3]) was “failed to enhance platelet production”.

In the case of CCCCC[C@H](O)/C=C/[C@@H]1[C@H]2C/C(=C/CCCC(=O)O)O[C@H]2C[C@H]1O [PGI2], the platelet production (Meg-01 cells [3]) was “failed to enhance platelet production”.

With CCCCC[C@H](O)/C=C/[C@H]1C(=O)C=C[C@@H]1C/C=C\CCCC(=O)O [PGJ2] the platelet production (Meg-01 cells [3]) was “enhanced Meg-01 platelet production”, the “percentage of Meg-01 cells that produce mitochondrial superoxide (MitoSOX Red)” value (Meg-01 cells [4]; 1 h) was 33% and the “percentage of Meg-01 cells that produce mitochondrial superoxide (MitoSOX Red)” value (Meg-01 cells [4]; 6 h) was 25%. The “percentage of Meg-01 cells that express ROS (carboxy-H2DCFDA)” value (Meg-01 cells [4]; 1 h) was 65% and the “percentage of Meg-01 cells that express ROS (carboxy-H2DCFDA)” value (Meg-01 cells [4]; 6 h) was 76%.
